Test results as given in US10265328B2, “C-19 steroids for specific therapeutic uses” (Procima GmbH, priority 2007, dated 2019).
Entries after “also recorded” stand apart in the source; their conditions may differ.

Assays:
aromatase = target: T1, aromatase (Homo sapiens, UniProt P11511); experiment: aromatization of the compound
T1 sequence (P11511 1-503): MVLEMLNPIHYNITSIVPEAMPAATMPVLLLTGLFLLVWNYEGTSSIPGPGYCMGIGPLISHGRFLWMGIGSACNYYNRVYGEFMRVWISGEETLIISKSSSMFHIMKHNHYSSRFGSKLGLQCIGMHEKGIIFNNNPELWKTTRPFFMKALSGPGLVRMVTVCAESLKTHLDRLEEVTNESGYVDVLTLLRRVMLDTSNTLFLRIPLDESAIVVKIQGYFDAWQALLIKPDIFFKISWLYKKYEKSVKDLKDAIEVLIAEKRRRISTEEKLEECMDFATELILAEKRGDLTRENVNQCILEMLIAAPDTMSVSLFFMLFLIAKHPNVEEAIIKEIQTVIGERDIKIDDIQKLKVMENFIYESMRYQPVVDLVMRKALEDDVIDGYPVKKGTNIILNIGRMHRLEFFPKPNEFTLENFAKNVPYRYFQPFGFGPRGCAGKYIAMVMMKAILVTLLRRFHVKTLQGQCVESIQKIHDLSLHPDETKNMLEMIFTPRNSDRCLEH

5α-reductase = experiment: 5α-reduction of the compound
breast cancer cells = experiment: growth of breast cancer cells in culture; type: cell-based; details: certain breast cancer cells in culture
From the text: A further promising concept is based on a comparative evaluation between DHT and the compounds of the present invention. […] This effect may readily hold also true for hormone independent cancer.

skin = experiment: topical application of a 4-OHT preparation to the skin over cellulite predilection areas; type: in vivo
From the text: Not only in theory but also in practice the compounds of the present invention and in particular 4-OHT and its related analogous compounds are the ideal anabolic substances. […] This can be deduced from topical applications to the skin.
The border between the two layers is made up of collagen fibres. Strengthening this border by increasing its collagen content by stimulating the fibroblasts to produce more collagen leads to a marked improvement of the appearance of cellulite.
A topical formulation containing a compound according to the present invention such as 4-OHT or an analogous compound can increase the collagen content of the skin via stimulation of the fibroblasts. […] It is reasonable to assume that 4-OHT has solely anabolic effects. […] Apparently is 4-OHT unable to exert any androgenic effects such as hair growth or pimples.

androgen receptor (AR) = target: T2, androgen receptor (AR) (Homo sapiens, UniProt P10275); experiment: binding affinity to the androgen receptor compared with DHT
T2 sequence (P10275 1-920): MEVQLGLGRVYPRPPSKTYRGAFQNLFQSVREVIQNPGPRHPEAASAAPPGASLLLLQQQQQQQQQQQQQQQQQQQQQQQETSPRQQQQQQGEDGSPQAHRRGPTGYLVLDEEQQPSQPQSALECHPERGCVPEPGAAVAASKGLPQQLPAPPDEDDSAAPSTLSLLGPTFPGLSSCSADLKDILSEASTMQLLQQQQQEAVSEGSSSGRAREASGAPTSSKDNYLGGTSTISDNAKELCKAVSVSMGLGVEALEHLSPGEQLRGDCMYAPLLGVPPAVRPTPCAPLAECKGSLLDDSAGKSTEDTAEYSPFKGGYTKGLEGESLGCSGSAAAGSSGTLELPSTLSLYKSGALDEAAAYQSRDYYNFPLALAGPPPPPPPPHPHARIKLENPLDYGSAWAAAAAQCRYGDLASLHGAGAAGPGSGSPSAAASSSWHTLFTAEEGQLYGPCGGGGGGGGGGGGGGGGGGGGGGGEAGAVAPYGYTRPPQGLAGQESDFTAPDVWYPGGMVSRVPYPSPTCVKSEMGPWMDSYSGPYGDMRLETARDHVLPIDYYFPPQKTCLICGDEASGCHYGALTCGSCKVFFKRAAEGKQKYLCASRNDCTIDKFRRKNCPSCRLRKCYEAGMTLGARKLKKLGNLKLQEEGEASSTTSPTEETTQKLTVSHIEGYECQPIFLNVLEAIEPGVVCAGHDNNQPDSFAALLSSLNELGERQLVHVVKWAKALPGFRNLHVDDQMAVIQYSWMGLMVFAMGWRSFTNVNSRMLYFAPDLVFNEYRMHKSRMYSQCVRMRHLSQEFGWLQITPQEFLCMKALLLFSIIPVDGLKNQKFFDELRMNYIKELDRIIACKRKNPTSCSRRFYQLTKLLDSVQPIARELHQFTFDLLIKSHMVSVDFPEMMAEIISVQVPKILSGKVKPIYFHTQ
Procedure: The compounds used according to the present invention preferably have a binding affinity to the androgen receptor (AR) higher than DHT; more preferably the binding affinity is high by having affinity specific to AR in a range of IC50≤500 nM, preferably IC50≤100 nM and more preferably IC50≤50 nM, wherein IC50 is defined as the concentration of the compound required to reduce specific binding of a reference compound, 5α-dihydrotestosterone (DHT), by 50%. The IC50-values can be determined by known methods using radioactively labelled DHT as reference compound, for example by a standard dextran-coated charcoal adsorption method as described by Raynaud et al., J. Steroid Biochem. 6, 615-622 (1975), using 1 nM reference concentrations of radiolabeled [^3H]-DHT, or by similar IC50 determination methods described in the literature. Because the concentration of AR in the target cell is very low, typically in the nanomolar range approximately, differences in binding constants to the order contemplated in the present invention are significant.

[1] = tested on: variant of the human prostate cancer cell line LNCaP; details: cited from earlier work
prostate cancer = details: 5 mg/day for 7 years vs placebo, men over 55 years, PSA less than 3.0 ng/ml; cited from earlier work
[2] = topical treatment over predilection areas of cellulite, within four weeks

Row | Compound | aromatization (aromatase) | 5α-reduction (5α-reductase) | growth of breast cancer cells in culture (breast cancer cells) | androgenic effect on the skin (hair growth, pimples) (skin; after application to the skin) | concentration of collagen fibres in the skin (skin; topical application to the skin) | topical formulation compared with 4-OHA (skin; topical formulation, collagen content of the skin) | adipocytes entrapped in the mesh of collagen fibres (skin; [2]) | solidification of the skin (skin; [2]) | binding affinity to the AR relative to DHT (androgen receptor (AR)) | proliferation of LNCaP variant [1] | reduction of prostate cancers in the treatment arm (prostate cancer) [%]
1 | C[C@]12CC[C@H]3[C@@H](CCC4=C(O)C(=O)CC[C@@]43C)[C@@H]1CC[C@@H]2O [4-OHT, 4,17β-dihydroxyandrost-4-en-3-one] | escapes aromatization | escapes aromatization or 5α-reduction | even more effective | no androgenic effect whatsoever could be observed | anabolically increases the concentration of collagen fibres; also recorded: drastic augmentation of collagen fibres | superior than 4-OHA | marked diminution and shrinkage of the adipocytes | considerable solidification of the skin | higher affinity to the AR than DHT |  | 
2 | C[C@]12CCC(=O)C[C@@H]1CC[C@@H]1[C@@H]2CC[C@]2(C)[C@@H](O)CC[C@@H]12 [DHT, dihydrotestosterone, reference compound] |  |  | able to abolish the growth |  |  |  |  |  |  | inhibits the proliferation | 
3 | CC(C)(C)NC(=O)[C@H]1CC[C@H]2[C@@H]3CC[C@H]4NC(=O)C=C[C@]4(C)[C@H]3CC[C@]12C [finasteride] |  |  |  |  |  |  |  |  |  |  | 25
